Results taken from article PMC8571951, “An activity‐based bioprobe differentiates a novel small molecule inhibitor from a LOXL2 antibody and provides renewed promise for anti‐fibrotic therapeutic strategies” (Clinical and Translational Medicine, 2021).

Columns and labels:
[1] = target: T1, Recombinant human LOXL1 (Homo sapiens, UniProt Q08397); assay: Standard Amplex Red assay, rh LOXL1; format: biochemical; details: 30 min pre-incubation
T1 sequence (Q08397 96-574): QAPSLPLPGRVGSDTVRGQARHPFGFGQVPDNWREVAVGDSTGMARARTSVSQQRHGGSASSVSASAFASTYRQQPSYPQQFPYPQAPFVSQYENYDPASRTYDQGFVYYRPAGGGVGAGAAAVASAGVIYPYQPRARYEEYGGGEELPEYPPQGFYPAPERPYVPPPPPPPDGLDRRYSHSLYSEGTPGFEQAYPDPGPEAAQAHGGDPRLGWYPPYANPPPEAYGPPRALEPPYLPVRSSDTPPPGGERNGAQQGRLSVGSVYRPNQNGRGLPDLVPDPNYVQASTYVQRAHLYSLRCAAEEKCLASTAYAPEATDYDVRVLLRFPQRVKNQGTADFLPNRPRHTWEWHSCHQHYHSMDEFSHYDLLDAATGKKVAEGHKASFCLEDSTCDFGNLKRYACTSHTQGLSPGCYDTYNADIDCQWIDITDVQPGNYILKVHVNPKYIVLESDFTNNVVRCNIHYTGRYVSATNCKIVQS
Source text: (§1) FIGURE 1 Characteristics of the activity‐based probe (ABP) PXS‐5878. (A) Chemical structure of PXS‐5878, with functional subunits denoted with different colours. The fluoroallylamine moiety (blue) was designed to interact with the lysine tyrosylquinone (LTQ) co‐factor within the lysyl oxidase active sites. An extended linker (green) was incorporated to provide optimal separation between the reactive functional group and the tag, avoiding unfavourable steric hindrance. Biotin was selected as a tag, with higher sensitivity found to be achieved using a double tag (red), resulting in PXS‐5878 as the preferred ABP. (B) Concentration‐dependent inhibition of recombinant human (rh) lysyl oxidase‐like 1‐4 (LOXL1‐4) and native bovine LOX in a standard Amplex Red assay with 30 min pre‐incubation; n = 3–4 independent experiments, standard error of mean (SEM). Native bovine LOX was used as a surrogate for human LOX as both enzymes have similar pharmacology for fluoroallylamines.[2], [9] (C) Irreversible nature of PXS‐5878 enzyme inhibition confirmed using a jump dilution assay. […]
(§2) FIGURE 2 Characteristics of PXS‐5338 and inhibition of lysyl oxidase‐like 2 (LOXL2) enzymatic activity in vitro and in vivo. […] (B) Tissue levels of PXS‐5338 measured 1 and 4 h after a single oral dose of 30 mg/kg in the rat. […]

[2] = target: T2, LOXL3 (Homo sapiens, UniProt P58215); assay: Standard Amplex Red assay, rh LOXL3; format: biochemical; details: 30 min pre-incubation
T2 sequence (P58215 26-753): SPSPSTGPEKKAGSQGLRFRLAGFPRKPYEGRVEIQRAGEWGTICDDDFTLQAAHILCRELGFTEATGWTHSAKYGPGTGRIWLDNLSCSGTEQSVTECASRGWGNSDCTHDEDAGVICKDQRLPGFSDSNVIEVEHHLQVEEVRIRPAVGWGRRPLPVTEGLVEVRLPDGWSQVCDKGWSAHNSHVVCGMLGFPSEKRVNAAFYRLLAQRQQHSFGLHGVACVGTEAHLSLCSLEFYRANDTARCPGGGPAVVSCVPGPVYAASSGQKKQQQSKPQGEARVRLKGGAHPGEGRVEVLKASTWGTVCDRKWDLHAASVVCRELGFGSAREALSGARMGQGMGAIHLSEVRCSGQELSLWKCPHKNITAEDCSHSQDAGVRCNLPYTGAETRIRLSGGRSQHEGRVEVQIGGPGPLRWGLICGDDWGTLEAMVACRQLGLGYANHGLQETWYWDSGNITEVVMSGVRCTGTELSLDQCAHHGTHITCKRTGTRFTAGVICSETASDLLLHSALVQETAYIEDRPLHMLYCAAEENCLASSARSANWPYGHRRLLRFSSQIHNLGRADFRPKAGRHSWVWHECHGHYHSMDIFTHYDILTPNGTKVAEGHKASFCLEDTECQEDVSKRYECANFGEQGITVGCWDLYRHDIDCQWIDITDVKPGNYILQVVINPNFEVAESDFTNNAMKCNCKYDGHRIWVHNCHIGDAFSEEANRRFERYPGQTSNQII
Source text: as §1, §2

Row | IC50 [1] [nM] | IC50 [2] [nM] | Compound
1 | 2530 | 385 | CC(C)c1c(Cc2ccc(S(C)(=O)=O)nc2)c2ncccc2n1C/C(F)=C/CN [PXS-5338]
2 | 1770 | 973 | NC/C=C(\F)CS(=O)(=O)c1cccc(Cn2cc(-c3cc(OCCCc4cn(CCCCC[C@@H]5SC[C@@H]6NC(=O)N[C@@H]65)nn4)cc(OCCCc4cn(CCCCC[C@@H]5SC[C@@H]6NC(=O)N[C@@H]65)nn4)c3)nn2)c1 [PXS-5878]
